Experimental data: patent US8067382B2, “Anthelmintic composition” (Merial Limited, priority 2002, dated 2011)

Experiments:
[1] = Stability trial of Formulation 1 stored at ambient for 11 months, HPLC assay of actives; type: physicochemical
Protocol: A stability trial was conducted to ensure that the triclabendazole solution was stable. A formulation made as described in example 1 (“Formulation 1”) was stored at ambient for 11 months. At the conclusion of the storage period samples were tested for total abamectin and triclabendazole levels. [table]

[2] = tested on: liver flukes; settings: background statement; cited from earlier work
[3] = background statement; cited from earlier work

Molecule | Loss in activity after storage [1] | Efficacy against liver flukes by life cycle stage [2] | Physical stability of the solution after storage [1] | Solubility [3]
Abamectin | no loss in activity |  |  | 
CCCSc1ccc2nc(NC(=O)OC)[nH]c2c1 [Albendazole] |  | only effective against adult flukes |  | 
CSc1nc2cc(Cl)c(Oc3cccc(Cl)c3Cl)cc2[nH]1 [triclabendazole, 5-Chloro-6-(2,3-dichlorophenoxy)-2-methylthio-1H-benzimidazole] | no loss in activity | highly effective against liver flukes at all stages of their life cycle | remained in solution | highly insoluble
